This is an account of results in patent US20240018125A1, “CYCLIC ISOTHIOUREA DERIVATIVES AS CXCR4 MODULATORS” (ERMIUM THERAPEUTICS, priority 2020, published 2024).

Where a name gives a salt, the structure may show the parent alone.

The test system of one data set is peripheral blood mononuclear cells (PBMCs) from healthy donors. The experiment in a line: IFN production by R848-activated PBMCs, quantified with twINNE luciferase reporter cell line. It counts as cell-based, human. Conditions: Homo sapiens, PBMC; read-out: IC50 of anti-inflammatory activity (IFN production by activated PBMCs). Put shortly: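 Healthy-donor PBMCs (4.10^6/mL, RPMI/10% FBS) were pre-treated with compound, then stimulated with R848 at 5 μg/mL for 24 h. Supernatants were put on twINNE cells, which carry luciferase under five ISREs, for 24 h, and Bright-Glo luminescence was read. IC50 values came from variable-slope dose-response fits.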
Take `C1=C(CSC2=NCc3cccnc3N2)N2Cc3ccccc3CN=C2S1.Cl.Cl.Cl` [Example 31, 3-(((1,4-dihydropyrido[2,3-d]pyrimidin-2-yl)thio)methyl)-5,10-dihydrobenzo[e]thiazolo[3,2-a][1,3]diazepine trihydrochloride]: the concentration for half-maximal inhibition (IC50) is at most 10 µM.

Test system in the next data set: not given
Test: not given
Conditions: not given
`c1ccc2c(c1)CN=C(SCCN1CCCC1)N2` (as salt: hydrochloride) [Example 77, 2-((2-(pyrrolidin-1-yl)ethyl)thio)-1,4-dihydroquinazoline dihydrochloride] yielded a melting point of 195 to 203 °C.

`Fc1ccc2c(c1)N=C1SC=C(CSC3=NCc4ccccc4N3)N1C2` (as salt: hydrochloride) [Example 82, 3-(((1,4-dihydroquinazolin-2-yl)thio)methyl)-8-fluoro-5H-thiazolo[2,3-b]quinazoline dihydrochloride] showed a melting point above 250 °C.

For `Fc1ccc2c(c1)CN1C(CSC3=NCc4ccccc4N3)=CSC1=N2` (as salt: hydrochloride) [Example 84, 3-(((1,4-dihydroquinazolin-2-yl)thio)methyl)-7-fluoro-5H-thiazolo[2,3-b]quinazoline dihydrochloride], the melting point is above 250 °C.

Turning to `CC1(C)N=C(SCC2=CSC3=NC(Cc4ccccc4)CN23)Nc2ccccc21` (stereo not drawn) (as salt: hydrochloride) [Example 87, 6-benzyl-3-(((4,4-dimethyl-1,4-dihydroquinazolin-2-yl)thio)methyl)-5,6-dihydroimidazo[2,1-b]thiazole dihydrochloride], the melting point was 50 to 52 °C.

Compound `C1=C(CSC2=NCCc3ccccc3N2)N2CC(Cc3ccccc3)N=C2S1` (stereo not drawn) (as salt: hydrochloride) [Example 88, 6-benzyl-3-(((4,5-dihydro-1H-benzo[d][1,3]diazepin-2-yl)thio)methyl)-5,6-dihydroimidazo[2,1-b]thiazole dihydrochloride] returned a melting point of 50 to 53 °C.

Turning to `Fc1ccc2c(c1)NC(SCC1=CSC3=NC(Cc4ccccc4)CN13)=NC2` (stereo not drawn) (as salt: hydrochloride) [Example 89, 6-benzyl-3-(((7-fluoro-1,4-dihydroquinazolin-2-yl)thio)methyl)-5,6-dihydroimidazo[2,1-b]thiazole dihydrochloride], the melting point was in the range of 125 to 130 °C.

Compound `CCCCN1Cc2ccccc2N=C1SCC1=CSC2=NC(Cc3ccccc3)CN12` (stereo not drawn) (as salt: hydrochloride) [Example 93, 6-benzyl-3-(((3-butyl-3,4-dihydroquinazolin-2-yl)thio)methyl)-5,6-dihydroimidazo[2,1-b]thiazole dihydrochloride] gave a melting point of 40 to 44 °C.

As to `CC1(C)c2ccccc2N=C2SC=C(CSC3=NCc4ccccc4N3)N21` (as salt: hydrochloride) [Example 95, 3-(((1,4-dihydroquinazolin-2-yl)thio)methyl)-5,5-dimethyl-5H-thiazolo[2,3-b]quinazoline dihydrochloride], the melting point lay in the range of 180 to 185 °C.

Take `CCCCN1C(SCC2=CSC3=NC(Cc4ccccc4)CN23)=NCc2ccccc21` (stereo not drawn) (as salt: hydrochloride) [Example 99, 6-benzyl-3-(((1-butyl-1,4-dihydroquinazolin-2-yl)thio)methyl)-5,6-dihydroimidazo[2,1-b]thiazole dihydrochloride]: the melting point lay in the range of 50 to 58 °C.

For `C1=C(CSC2=NCc3ccccc3N2)N2C[C@H](Cc3c[nH]c4ccccc34)N=C2S1` (as salt: hydrochloride) [Example 109, (S)-6-((1H-indol-3-yl)methyl)-3-(((1,4-dihydroquinazolin-2-yl)thio)methyl)-5,6-dihydroimidazo[2,1-b]thiazole dihydrochloride], the melting point lay within 180 to 190 °C.

`IC1=C(CSC2=NCc3ccccc3N2)N2CC(Cc3ccccc3)N=C2S1` (stereo not drawn) (as salt: hydrochloride) [Example 110, 6-benzyl-3-(((1,4-dihydroquinazolin-2-yl)thio)methyl)-2-iodo-5,6-dihydroimidazo[2,1-b]thiazole dihydrochloride] displayed a melting point of 177 to 182 °C.

In turn, `Cc1cccc(CC2CN3C(CSC4=NCc5ccccc5N4)=CSC3=N2)c1` (stereo not drawn) (as salt: hydrochloride) [Example 112, 3-(((1,4-dihydroquinazolin-2-yl)thio)methyl)-6-(3-methylbenzyl)-5,6-dihydroimidazo[2,1-b]thiazole dihydrochloride] came in with a melting point of 136 to 145 °C.

Take `CC1N=C(SCC2=CSC3=NC(Cc4ccccc4)CN23)Nc2ccccc21` (stereo not drawn) (as salt: hydrochloride) [Example 113, 6-benzyl-3-(((4-methyl-1,4-dihydroquinazolin-2-yl)thio)methyl)-5,6-dihydroimidazo[2,1-b]thiazole dihydrochloride]: the melting point lay within 80 to 88 °C.

With `Fc1cccc2c1CN=C(SCC1=CSC3=NC(Cc4ccccc4)CN13)N2` (stereo not drawn) (as salt: hydrochloride) [Example 117, 6-benzyl-3-(((5-fluoro-1,4-dihydroquinazolin-2-yl)thio)methyl)-5,6-dihydroimidazo[2,1-b]thiazole dihydrochloride], the melting point lay within 147 to 151 °C.

`C1=C(CSC2=NCc3ccccc3N2)N2CC(c3ccccc3)N=C2S1` (stereo not drawn) (as salt: hydrochloride) [Example 120, 3-(((1,4-dihydroquinazolin-2-yl)thio)methyl)-6-phenyl-5,6-dihydroimidazo[2,1-b]thiazole dihydrochloride]: the melting point lay in the range of 185 to 190 °C.

Regarding `Cc1ccc(CC2CN3C(CSC4=NCc5ccccc5N4)=CSC3=N2)cc1` (stereo not drawn) (as salt: hydrochloride) [Example 122, 3-(((1,4-dihydroquinazolin-2-yl)thio)methyl)-6-(4-methylbenzyl)-5,6-dihydroimidazo[2,1-b]thiazole dihydrochloride], the melting point was in the range of 158 to 170 °C.

As to `COc1ccc(C[C@@H]2CN3C(CSC4=NCc5ccccc5N4)=CSC3=N2)cc1` (as salt: hydrochloride) [Example 124, (R)-3-(((1,4-dihydroquinazolin-2-yl)thio)methyl)-6-(4-methoxybenzyl)-5,6-dihydroimidazo[2,1-b]thiazole dihydrochloride], the melting point was in the range of 150 to 164 °C.

`C1=C(CSC2=NCc3ccccc3N2)N2CC(CCc3ccccc3)N=C2S1` (stereo not drawn) (as salt: hydrochloride) [Example 126, 3-(((1,4-dihydroquinazolin-2-yl)thio)methyl)-6-phenethyl-5,6-dihydroimidazo[2,1-b]thiazole dihydrochloride] displayed a melting point of 136 to 142 °C.

In turn, `c1ccc(C2CCCN2CCSC2=NCc3ccccc3N2)cc1` (stereo not drawn) (as salt: hydrochloride) [Example 128, 2-((2-(2-phenylpyrrolidin-1-yl)ethyl)thio)-1,4-dihydroquinazoline dihydrochloride] returned a melting point of 94 to 108 °C.

For the compound `c1ccc2c(c1)CN=C(SCCN1[C@@H]3CCC[C@H]1CC3)N2` (as salt: hydrochloride) [Example 133, 2-((2-((1R,5S)-8-azabicyclo[3.2.1]octan-8-yl)ethyl)thio)-3,4-dihydroquinazoline dihydrochloride], the melting point was in the range of 52 to 70 °C.

With `Ic1cc2c(c(I)c1I)NC(SCCN1CCCC1)=NC2` (as salt: hydrochloride) [Example 134, 6,7,8-triiodo-2-((2-(pyrrolidin-1-yl)ethyl)thio)-1,4-dihydroquinazoline dihydrochloride], the melting point fell in the range of 190 to 195 °C.

In turn, `c1ccc2c(c1)CN=C(SCCCCN1CCCC1)N2` (as salt: hydrochloride) [Example 137, 2-((4-(pyrrolidin-1-yl)butyl)thio)-1,4-dihydroquinazoline dihydrochloride] gave a melting point of 78 to 85 °C.

`CC1CCN(CCSC2=NCc3ccccc3N2)C1` (stereo not drawn) (as salt: hydrochloride) [Example 138, 2-((2-(3-methylpyrrolidin-1-yl)ethyl)thio)-1,4-dihydroquinazoline dihydrochloride] returned a melting point of 178 to 182 °C.

With `Fc1ccc(CC2CN3C(CSC4=NCc5ccccc5N4)=CSC3=N2)cc1` (stereo not drawn) (as salt: hydrochloride) [Example 196, 3-(((1,4-dihydroquinazolin-2-yl)thio)methyl)-6-(4-fluorobenzyl)-5,6-dihydroimidazo[2,1-b]thiazole dihydrochloride], the melting point lay within 155 to 160 °C.

Compound `C1=C(CSC2=NCc3ccccc3N2)N2C(=N[C@H]3CCCC[C@@H]32)S1` (relative stereo) (as salt: hydrochloride) [Example 13, trans-3-(((3,4-dihydroquinazolin-2-yl)thio)methyl)-4a,5,6,7,8,8a-hexahydrobenzo[4,5]imidazo[2,1-b]thiazole dihydrochloride] gave a melting point of 240 to 244 °C.

`C1=C(CSC2=NCc3ccccc3N2)N2C(=N[C@H](c3ccccc3)[C@H]2c2ccccc2)S1` (relative stereo) (as salt: hydrochloride) [Example 16, trans-3-(((3,4-dihydroquinazolin-2-yl)thio)methyl)-5,6-diphenyl-5,6-dihydroimidazo[2,1-b]thiazole dihydrochloride] displayed a melting point of 175 to 185 °C.

Consider `OC1(CSC2=NCc3ccccc3N2)CSC2=N[C@H](c3ccccc3)[C@@H](c3ccccc3)N21` (relative stereo) (as salt: hydrochloride) [Example 17, trans-3-(((3,4-dihydroquinazolin-2-yl)thio)methyl)-5,6-diphenyl-2,3,5,6-tetrahydroimidazo[2,1-b]thiazol-3-ol dihydrochloride], for which the melting point is 195 to 200 °C.

In turn, `C1=C(CSC2=NCc3cccnc3N2)N2Cc3ccccc3CN=C2S1.Cl.Cl.Cl` [Example 31, 3-(((1,4-dihydropyrido[2,3-d]pyrimidin-2-yl)thio)methyl)-5,10-dihydrobenzo[e]thiazolo[3,2-a][1,3]diazepine trihydrochloride] had a melting point of 194 to 203 °C.

For the compound `Cl.c1ccc2c(c1)CN=C(SCc1csc3nc4ccccc4n13)N2` [Example 96], the melting point was above 250 °C.
